We go through one compound from patent US20260335398A1, “METHODS FOR TREATING PANCREATIC CANCER WITH A COMBINATION OF DES-METHYL PATEAMINE A AND A CLASS I HDAC INHIBITOR” (Baylor University, priority 2023, published 2026).

Experiment [1] relates to MIA PaCa-2 cells. The experiment can be described thus: Seahorse XF Real-Time ATP Rate Assay (FIG. 8A). It is filed as cell-based. The following applies: 6 h romidepsin then 12 h washout with or without 2 nM DMPatA. As for the experimental part:
FIG. 8A compares quantification of ATP production rates. Seahorse XF Real-Time ATP Rate Assay was performed under control conditions or after treatment with the combination and single agents. Treatment was for a total of 18 h (i.e., 6-hour romidepsin followed by 12-hour washout with 2 nM DMPatA (combo) or without (Romi alone)). FIG. 8A left panel—ATP production rate from mitochondrial respiration (Mito-ATP); FIG. 8A right panel—ATP production rate from glycolysis (Glyco-ATP). At least two biological replicate experiments with n=3 technical replicates were performed. Statistical significance was determined by one-way ANOVA using Tukey multiple comparison's test in the Prism software. *p value<0.01.
Because reprograming/augmentation of cellular metabolism by c-MYC is known to support oncogenesis, the Seahorse XF analyzer was used to assess the impact of the treatments on c-MYC-driven metabolism including ATP production, glycolysis, and mitochondrial oxidative phosphorylation (OXPHOS). Extracellular acidification rates, also known as proton efflux rate (PER), were measured for glycolysis and mitochondrial oxygen consumption rates (OCR) for OXPHOS. […]
Oxygen consumption rates (OCR) and extracellular acidification rates (ECAR) were measured using the XF96 Extracellular Flux analyzer (Seahorse Bioscience). […]

Experiment [2] has as its system MIA PaCa-2 cells. The experiment in a line: Cellular acetyl-CoA levels by LC-MS (FIG. 8D). It is filed as cell-based. The following applies: MIA PaCa-2, total 18 h. On the procedure: FIG. 8D compares cellular acetyl-CoA levels measured in MIA PaCa-2 cells using LC-MS following treatment of cells with the combination or with single agents as mentioned in FIG. 8A. At least three biological replicate experiments were carried out. Statistical significance was determined by two-way ANOVA, ****p value<0.0001, ***p value<0.0004.
Five million cells were seeded in 150 mm cell culture dishes. Cells were treated with combination or single agents for a total of 18 h (6-+12-hours). Following treatment cells were harvested on ice, washed, and scraped out under liquid nitrogen. Prior to extraction an aliquot of the cell pellet was collected and subjected to protein quantification.
For Acetyl-CoA extraction, a 100 μL aliquot of the thawed pellet was spiked with ^13C2-acetyl-CoA as an internal standard, extracted with 400 μL of methanol, vortexed, and centrifuged at […] for 5 minutes at 4 °C. The methanol supernatant (400 μL) was then dried under nitrogen at 35 °C and reconstituted in 100 μL of 10 mM ammonium bicarbonate (pH 9.5) for LC/MS analysis. Calibration curve standards were similarly prepared as the cell pellets. Acetyl-CoA quantification by LC/MS was performed on an Agilent 1290 Infinity UHPLC/6495 triple quadrupole mass spectrometer, using multiple reaction monitoring. […]

SMILES strings stand for the structures.

Consider `C/C=C1\NC(=O)[C@H]2CSSCC/C=C/[C@H](CC(=O)N[C@H](C(C)C)C(=O)N2)OC(=O)[C@H](C(C)C)NC1=O` [romidepsin], for which, in the experiment on MIA PaCa-2 cells [1], the “glycolytic ATP production (Glyco-ATP)” value was “reduced” and the “mitochondrial ATP production (Mito-ATP)” value is “reduced”. Also, the “cellular acetyl-CoA levels” value in the experiment on MIA PaCa-2 cells [2] is “significant reduction”.
